Data as given in the supplement of paper PMC11451515.

Test system: NOMO1
Assay: cell viability relative to DMSO control; higher = less cytotoxic
Details: 48 h
Outline: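 NOMO1 or SEM cells were plated at 500 cells/well and P12-Ichikawa cells at 1000 cells/well in 1536-well plates (5 μl), after each leukemia line had been adapted for at least four passages in each medium. Pin dosing delivered library compounds in DMSO at 11 threefold concentrations, 47 μM to 0.79 nM. CellTiter-Glo One luminescence was read after 48 h at 37°C. Viability is reported as a per-plate percentage of DMSO wells, with cell-free wells as background.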

[1] = RPMI 5 mM glucose + 10% dialyzed FBS, 0.000781 µM
[2] = RPMI 5 mM glucose + 10% dialyzed FBS, 0.00234 µM
[3] = RPMI 5 mM glucose + 10% dialyzed FBS, 0.00702 µM
[4] = RPMI 5 mM glucose + 10% dialyzed FBS, 0.0211 µM
[5] = RPMI 5 mM glucose + 10% dialyzed FBS, 0.0632 µM
[6] = RPMI 5 mM glucose + 10% dialyzed FBS, 0.19 µM
[7] = RPMI 5 mM glucose + 10% dialyzed FBS, 0.569 µM
[8] = RPMI 5 mM glucose + 10% dialyzed FBS, 1.71 µM
[9] = RPMI 5 mM glucose + 10% dialyzed FBS, 5.12 µM
[10] = RPMI 5 mM glucose + 10% dialyzed FBS, 15.4 µM
[11] = RPMI 5 mM glucose + 10% dialyzed FBS, 46.1 µM
[12] = HPLM + 10% dialyzed FBS, 0.000781 µM
[13] = HPLM + 10% dialyzed FBS, 0.00234 µM
[14] = HPLM + 10% dialyzed FBS, 0.00702 µM
[15] = HPLM + 10% dialyzed FBS, 0.0211 µM
[16] = HPLM + 10% dialyzed FBS, 0.0632 µM
[17] = HPLM + 10% dialyzed FBS, 0.19 µM
[18] = HPLM + 10% dialyzed FBS, 0.569 µM
[19] = HPLM + 10% dialyzed FBS, 1.71 µM
[20] = HPLM + 10% dialyzed FBS, 5.12 µM
[21] = HPLM + 10% dialyzed FBS, 15.4 µM
[22] = HPLM + 10% dialyzed FBS, 46.1 µM
[23] = RPMI 5 mM glucose + 10% FBS, 0.000781 µM
[24] = RPMI 5 mM glucose + 10% FBS, 0.00234 µM
[25] = RPMI 5 mM glucose + 10% FBS, 0.00702 µM
[26] = RPMI 5 mM glucose + 10% FBS, 0.0211 µM
[27] = RPMI 5 mM glucose + 10% FBS, 0.0632 µM
[28] = RPMI 5 mM glucose + 10% FBS, 0.19 µM
[29] = RPMI 5 mM glucose + 10% FBS, 0.569 µM
[30] = RPMI 5 mM glucose + 10% FBS, 1.71 µM
[31] = RPMI 5 mM glucose + 10% FBS, 5.12 µM
[32] = RPMI 5 mM glucose + 10% FBS, 15.4 µM
[33] = RPMI 5 mM glucose + 10% FBS, 46.1 µM

Row | SMILES | cell viability [1] | cell viability [2] | cell viability [3] | cell viability [4] | cell viability [5] | cell viability [6] | cell viability [7] | cell viability [8] | cell viability [9] | cell viability [10] | cell viability [11] | cell viability [12] | cell viability [13] | cell viability [14] | cell viability [15] | cell viability [16] | cell viability [17] | cell viability [18] | cell viability [19] | cell viability [20] | cell viability [21] | cell viability [22] | cell viability [23] | cell viability [24] | cell viability [25] | cell viability [26] | cell viability [27] | cell viability [28] | cell viability [29] | cell viability [30] | cell viability [31] | cell viability [32] | cell viability [33]
1 | CC(C(C)N1CC(=O)NC(=O)C1)N1CC(=O)NC(=O)C1 (stereo not given) | 110% | 121% | 139% | 133% | 127% | 123% | 139% | 135% | 130% | 124% | 106% | – | – | – | – | – | – | – | – | – | – | – | – | – | – | – | – | – | – | – | – | – | –
2 | Cc1ccc([C@@H]2O[C@H](CO)[C@@H](O)[C@H](O)[C@H]2O)cc1Cc1ccc(-c2ccc(F)cc2)s1 | – | – | – | – | – | – | – | – | – | – | – | 122% | 138% | 122% | 129% | 127% | 129% | 119% | 127% | 142% | 122% | 85.3% | – | – | – | – | – | – | – | – | – | – | –
3 | Nc1n[nH]c2nnc(-c3c(-c4ccccc4)nn4ccccc34)cc12 | 116% | 123% | 134% | 129% | 136% | 129% | 138% | 119% | 29.1% | 28% | 21.4% | 103% | 139% | 118% | 131% | 134% | 137% | 137% | 86.3% | 40.5% | 37.4% | 37.3% | 116% | 114% | 144% | 124% | 138% | 123% | 133% | 59% | 24% | 26.9% | 20.8%
4 | COc1ccc(CCC(=O)c2c(O)cc(O[C@@H]3O[C@H](CO)[C@@H](O)[C@H](O)[C@H]3O[C@@H]3O[C@@H](C)[C@H](O)[C@@H](O)[C@H]3O)cc2O)cc1O | 118% | 121% | 119% | 119% | 135% | 116% | 117% | 113% | 110% | 40.2% | 34.4% | 105% | 138% | 124% | 122% | 120% | 124% | 117% | 102% | 91.2% | 36.1% | 42.7% | 118% | 140% | 114% | 123% | 119% | 119% | 111% | 107% | 114% | 45.2% | 20.7%
5 | COc1cc2c(cc1OC)[C@@H]1Cc3ccc(OC)c(OC)c3CN1CC2 | 112% | 114% | 116% | 107% | 96.5% | 109% | 95.6% | 97.8% | 106% | 103% | 56% | 120% | 129% | 115% | 105% | 118% | 110% | 112% | 117% | 114% | 99.4% | 31.2% | 98.1% | 101% | 94.8% | 97.1% | 106% | 104% | 97.6% | 101% | 102% | 92.7% | 34.3%
6 | Cc1ccc(C(=O)Nc2cccc(C(F)(F)F)c2)cc1Nc1nc(-c2cccnc2)nc2c1cnn2C | 84.8% | 86.2% | 87.6% | 87.2% | 90.7% | 89.1% | 83.7% | 77.4% | 93.8% | 77.6% | 85.3% | 87.4% | 80.6% | 97.4% | 97.6% | 88.4% | 104% | 74% | 56.5% | 71.2% | 67.8% | 78% | 83.5% | 84.8% | 94.5% | 77.4% | 85.1% | 87.4% | 77.6% | 84.9% | 87.7% | 73.4% | 76.4%
7 | CCCN[C@H]1CCc2nc(N)sc2C1 | 83.9% | 93.1% | 104% | 98.8% | 106% | 102% | 101% | 107% | 87.1% | 109% | 82.4% | 105% | 102% | 104% | 116% | 95.4% | 102% | 119% | 112% | 123% | 118% | 114% | 86.8% | 84.8% | 96.6% | 89.3% | 92.6% | 90.6% | 85.3% | 96.2% | 96.7% | 90.5% | 89.3%
8 | CCNC(=O)CCC/C=C\C[C@@H]1[C@@H](/C=C/C(O)CCc2ccccc2)[C@@H](O)C[C@@H]1O (stereo not given in full) | 113% | 121% | 106% | 116% | 114% | 105% | 120% | 105% | 118% | 111% | 32.3% | 104% | 108% | 106% | 131% | 112% | 130% | 103% | 116% | 105% | 110% | 39.5% | 116% | 118% | 124% | 106% | 108% | 105% | 113% | 120% | 118% | 102% | 38%
